Experiments:
[1] = tested on: axonal mitochondrial membrane potential (ΨM); experiment: Mitochondrial membrane potential (JC-1 red/green ratio) in axon shafts of DRG neurons; assay type: cell-based, rat
Text: Considering the above changes in mitochondrial transport, we asked if MAG and CSPG might affect mitochondrial function in axons. Functional mitochondria are needed to generate ATP, and the mitochondrion's membrane potential (ΨM) is thought to reflect its capacity for generating ATP. Increased anterograde transport of mitochondria in axons correlated with higher ΨM, as measured by the ratiometric 5,5′,6,6′-tetrachloro-1,1′,3,3′-tetraethylbenzimidazolcarbocyanine iodide (JC-1) dye (Miller and Sheetz, 2004), and reduced axonal ΨM in Drosophila melanogaster larvae was recently correlated with overall decrease in mitochondrial transport (Liao et al., 2017).
JC-1 (Life Technologies) was used for wm measurements. For this, DRG cultures were equilibrated in culture medium with […] JC-1 for 20 min at 37° C. Medium was replaced, and the cells were maintained at 37° C. in the high-content imaging system on which JC-1 fluorescent signals in green and red wavelengths were acquired. […]
Vesicle trafficking was quantified using differential ImageJ Difference Tracker Plug-in (Andrews et al., 2010). 50-80-μm long unbranched axon segments at approximately the mid-region between growth cone and cell body were analyzed. […] The distance between the growth tip at end of the post-CALI sequence and the pre-CALI baseline was measured using LAS-X software. Movement of ≥0.5 μm toward the axon shaft was counted as retracted. Fluorescence emission of the Mito-KR post-CALI was analyzed using ImageJ. For normalizing intensities across FRAP image sets, fluorescence intensity at each time point was scaled using the LAS-X FRAP module so that the residual fluorescence signal at t=0 min (post-bleach) was set at 0 and the prebleach intensity was set at 100% for each bleached ROI. For axon shaft FRAP analyses, each 50-μm bleached ROI was divided into […], and the fluorescence intensity recovery was measured as described above. […] A minimum of 75 unmyelinated axons was analyzed for each nerve. All unmyelinated axons from each analyzed image were included for quantitative studies. […]

[2] = tested on: Miro1-AcK105; experiment: Miro1-AcK105 levels in DRG cultures by immunoblotting and immunofluorescence; assay type: cell-based, rat
Text: The three reported acetylation sites for Miro1 in human cell lines K92, K512, and K618 (Choudhary et al., 2009; Lundby et al., 2012) correspond to K105, K525, and K629 in rat Miro1 (FIG. 6 at D). We generated Lys-to-Ala mutants for K105, K525, and K629 to determine if these Miro1 residues are acetylated in neurons (Myc-Miro1K105A , Myc-Miro1K525A , and […]; FIG. 6 at D). […] To more definitively assess acetylation of K105, we used acetylated Miro1 peptides to generate an anti-Miro1-AcK105 antibody.
For immunoblotting, protein lysates or immunoprecipitates were denatured by boiling in Laemmli sample buffer, fractionated by SDS-PAGE, and transferred to nitrocellulose membranes. Blots were blocked for 1 h at room temperature with 5% nonfat dry milk in TBS with 0.1% Tween 20 (TBST). Primary antibodies diluted in 5% BSA in TBST were added to the membranes and incubated overnight at 4° C. with rocking. Primary antibodies consisted of rabbit anti-Myc (1:2,000; Cell Signaling; 71D10), rabbit anti-RHOT1 antibody (1:1,000; Aviva Systems Biology; ARP44817 P050), rabbit anti-HDAC6 antibody (1:2,000; Cell Signaling; 7558), rabbit anti-ERK1 (1:5,000; Abcam; ab32537), and affinity-purified custom rabbit anti-Miro1-AcK105 (1:2,500; Twiss laboratory, see above) antibodies. For the anti-Miro1-AcK105 antibody, preimmune and test-bleed sera were used at 1:1,000 dilutions to initially evaluate for specificity. After washing in TBST, blots were incubated with HRP-conjugated anti-rabbit IgG antibodies (1:5,000; Jackson Immunoresearch) diluted in blocking buffer for 1 h at room temperature. Signals were detected using ECL Prime (GE Healthcare) after extensive washing.
Standard immunofluorescence methods were used as previously described (Merianda et al., 2009) at room temperature unless specified otherwise. Briefly, coverslips were rinsed in PBS, fixed in buffered 3.7% PFA for 15-20 min, and washed twice in PBS. Cultures were permeabilized with PBS plus 0.3% Triton X-100 (PBST; Sigma-Aldrich) for 5 min. Coverslips were blocked in 2% BSA and 2% FBS (Gemini) for 1 h. […]

SMILES | effect on MAG-Fc- or CSPG-dependent declines in ΨM ([1]; 10 μM TubA) | effect on Rho activator- and thapsigargin-dependent decrease in ΨM ([1]; +10 μM TubA) | anti-Miro1-AcK105 immunoblot signal ([2]; DRG lysates ± 10 μM TubA) | ΨM in the axons ([1]; 1 μg/ml Rho activator or 1 μM thapsigargin) | Miro1-AcK105 overall by immunoblotting ([2]; 10 μg/ml aggrecan or 1 μM thapsigargin, 4 h) | Miro1-AcK105 in axons by immunofluorescence ([2]; aggrecan- or thapsigargin-treated cultures)
CN1CCc2c(c3ccccc3n2Cc2ccc(C(=O)NO)cc2)C1 [TubA, tubastatin] | prevented by inhibition of HDAC6 with TubA | also prevented by HDAC6 inhibition | clear increase in signal | – | – | –
C/C=C(/C)C(=O)O[C@H]1C(C)=C2[C@H]([C@@H]1OC(=O)CCCCCCC)[C@@](C)(OC(C)=O)C[C@H](OC(=O)CCC)[C@@]1(O)[C@H]2OC(=O)[C@@]1(C)O [thapsigargin] | – | – | – | decreased ΨM | decreased Miro1-AcK105 | decreased Miro1-AcK105

Reference: patent US20210330756A1, “Acetylation of Miro1” (University of South Carolina, priority 2020, published 2021)
